Values of other authors as cited in article PMC9516332 (Frontiers in Oncology, 2022).
Read-outs that look alike come from different tables or passages of the source.

How the values were obtained:
Settings in all cases: cited from earlier work
[1] = biological target: T1, panel of 255 wild-type kinases (Homo sapiens, UniProt Q96PF2)
T1 sequence (Q96PF2 1-358): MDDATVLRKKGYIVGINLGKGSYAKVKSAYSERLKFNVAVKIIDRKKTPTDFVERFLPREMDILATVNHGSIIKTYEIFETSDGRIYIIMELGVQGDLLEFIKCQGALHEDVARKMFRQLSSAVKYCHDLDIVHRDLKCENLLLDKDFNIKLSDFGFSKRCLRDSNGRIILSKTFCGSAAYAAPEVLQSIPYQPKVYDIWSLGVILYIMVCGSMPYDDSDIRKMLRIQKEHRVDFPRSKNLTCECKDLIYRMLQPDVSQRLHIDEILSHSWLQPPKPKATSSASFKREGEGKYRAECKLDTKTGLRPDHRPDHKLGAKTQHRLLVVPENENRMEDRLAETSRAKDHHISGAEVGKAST

[2] = biological target: panel of 255 wild-type kinases (Homo sapiens, UniProt Q05397)
[3] = biological target: panel of 255 wild-type kinases (Homo sapiens, UniProt P21802)
[4] = biological target: panel of 255 wild-type kinases (Homo sapiens, UniProt P57059)
[5] = biological target: T2, panel of 255 wild-type kinases (Homo sapiens, UniProt P42681)
T2 sequence (P42681 1-527): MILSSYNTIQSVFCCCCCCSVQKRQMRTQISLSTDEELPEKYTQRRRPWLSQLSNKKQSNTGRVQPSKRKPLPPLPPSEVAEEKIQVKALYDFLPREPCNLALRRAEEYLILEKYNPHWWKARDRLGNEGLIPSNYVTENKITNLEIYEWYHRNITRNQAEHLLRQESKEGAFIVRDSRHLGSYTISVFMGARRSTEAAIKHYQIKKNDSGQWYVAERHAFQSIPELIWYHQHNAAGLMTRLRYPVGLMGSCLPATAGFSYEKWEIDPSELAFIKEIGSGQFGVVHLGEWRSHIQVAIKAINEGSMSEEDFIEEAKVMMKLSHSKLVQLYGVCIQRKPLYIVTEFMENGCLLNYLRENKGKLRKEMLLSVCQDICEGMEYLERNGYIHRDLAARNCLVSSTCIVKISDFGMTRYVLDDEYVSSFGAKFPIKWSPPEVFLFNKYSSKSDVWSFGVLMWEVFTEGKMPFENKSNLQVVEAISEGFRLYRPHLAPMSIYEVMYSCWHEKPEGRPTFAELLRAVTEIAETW

[6] = biological target: panel of 255 wild-type kinases (Homo sapiens, UniProt Q5VT25)
[7] = biological target: panel of 255 wild-type kinases (Homo sapiens, UniProt Q16644)
[8] = biological target: panel of 255 wild-type kinases (Homo sapiens, UniProt P17948)
[9] = biological target: panel of 255 wild-type kinases (Homo sapiens, UniProt Q86V86)
[10] = biological target: T3, panel of 255 wild-type kinases (Homo sapiens, UniProt P29323)
T3 sequence (P29323 19-1055): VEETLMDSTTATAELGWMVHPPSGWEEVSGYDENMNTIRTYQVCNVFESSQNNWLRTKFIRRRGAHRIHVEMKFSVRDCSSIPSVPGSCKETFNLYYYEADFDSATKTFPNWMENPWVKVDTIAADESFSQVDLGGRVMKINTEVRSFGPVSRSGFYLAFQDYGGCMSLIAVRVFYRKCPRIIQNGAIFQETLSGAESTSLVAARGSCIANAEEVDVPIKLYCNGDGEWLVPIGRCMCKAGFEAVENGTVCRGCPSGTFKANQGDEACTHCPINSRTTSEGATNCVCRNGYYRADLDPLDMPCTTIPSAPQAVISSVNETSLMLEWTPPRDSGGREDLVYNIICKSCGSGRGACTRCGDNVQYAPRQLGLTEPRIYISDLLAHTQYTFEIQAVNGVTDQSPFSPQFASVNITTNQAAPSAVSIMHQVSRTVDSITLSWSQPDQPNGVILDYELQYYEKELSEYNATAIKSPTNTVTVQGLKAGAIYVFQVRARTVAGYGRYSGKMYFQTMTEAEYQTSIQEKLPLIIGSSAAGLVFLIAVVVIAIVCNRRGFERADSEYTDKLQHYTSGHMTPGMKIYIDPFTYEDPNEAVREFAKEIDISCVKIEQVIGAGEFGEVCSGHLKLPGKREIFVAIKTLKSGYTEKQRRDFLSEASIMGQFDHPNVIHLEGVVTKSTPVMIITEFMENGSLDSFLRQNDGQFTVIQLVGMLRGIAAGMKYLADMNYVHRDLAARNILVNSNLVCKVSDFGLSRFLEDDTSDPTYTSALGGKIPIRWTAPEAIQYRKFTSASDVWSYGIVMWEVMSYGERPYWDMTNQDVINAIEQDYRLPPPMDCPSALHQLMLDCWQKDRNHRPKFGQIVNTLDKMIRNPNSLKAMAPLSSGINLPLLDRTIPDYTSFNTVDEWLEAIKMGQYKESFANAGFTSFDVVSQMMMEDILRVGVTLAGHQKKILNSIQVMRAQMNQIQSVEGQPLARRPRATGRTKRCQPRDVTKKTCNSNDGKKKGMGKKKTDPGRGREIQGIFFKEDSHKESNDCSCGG

[11] = kinase TSSK2, 1 µmol/L single concentration, ref DOI: 10.1158/1535-7163.MCT-18-0877
[12] = kinase FAK, 1 µmol/L single concentration, ref DOI: 10.1158/1535-7163.MCT-18-0877
[13] = kinase FGFR2, 1 µmol/L single concentration, ref DOI: 10.1158/1535-7163.MCT-18-0877
[14] = kinase SIK, 1 µmol/L single concentration, ref DOI: 10.1158/1535-7163.MCT-18-0877
[15] = kinase TXK, 1 µmol/L single concentration, ref DOI: 10.1158/1535-7163.MCT-18-0877
[16] = MRCKα, 1 µmol/L single concentration, ref DOI: 10.1158/1535-7163.MCT-18-0877
[17] = MAPKAPK3, 1 µmol/L single concentration, ref DOI: 10.1158/1535-7163.MCT-18-0877
[18] = kinase FLT1, 1 µmol/L single concentration, ref DOI: 10.1158/1535-7163.MCT-18-0877
[19] = kinase PIM3, 1 µmol/L single concentration, ref DOI: 10.1158/1535-7163.MCT-18-0877
[20] = kinase EPHB2, 1 µmol/L single concentration, ref DOI: 10.1158/1535-7163.MCT-18-0877
[21] = kinase TSSK2, 1 µmol/L single concentration, ref DOI: 10.1371/journal.pone.0092146
[22] = kinase FAK, 1 µmol/L single concentration, ref DOI: 10.1371/journal.pone.0092146
[23] = kinase FGFR2, 1 µmol/L single concentration, ref DOI: 10.1371/journal.pone.0092146
[24] = kinase SIK, 1 µmol/L single concentration, ref DOI: 10.1371/journal.pone.0092146
[25] = kinase TXK, 1 µmol/L single concentration, ref DOI: 10.1371/journal.pone.0092146
[26] = MRCKα, 1 µmol/L single concentration, ref DOI: 10.1371/journal.pone.0092146
[27] = MAPKAPK3, 1 µmol/L single concentration, ref DOI: 10.1371/journal.pone.0092146
[28] = kinase FLT1, 1 µmol/L single concentration, ref DOI: 10.1371/journal.pone.0092146
[29] = kinase PIM3, 1 µmol/L single concentration, ref DOI: 10.1371/journal.pone.0092146
[30] = kinase EPHB2, 1 µmol/L single concentration, ref DOI: 10.1371/journal.pone.0092146

| SMILES | %-inhibition at 1 µmol/L, TSSK2 [1, 11] | %-inhibition at 1 µmol/L, FAK [2, 12] | %-inhibition at 1 µmol/L, FGFR2 [3, 13] | %-inhibition at 1 µmol/L, SIK [4, 14] | %-inhibition at 1 µmol/L, TXK [5, 15] | %-inhibition, MRCKα [6, 16] | %-inhibition, MAPKAPK3 [7, 17] | %-inhibition at 1 µmol/L, FLT1 [8, 18] | %-inhibition at 1 µmol/L, PIM3 [9, 19] | %-inhibition at 1 µmol/L, EPHB2 [10, 20] | further results |
| --- | --- | --- | --- | --- | --- | --- | --- | --- | --- | --- | --- |
| CC#CC(=O)N1CCC[C@H]1c1nc(-c2ccc(C(=O)Nc3ccccn3)cc2)c2c(N)nccn12 [acalabrutinib] | -3% | -1.39% | -6% | 0.256% | 68% | -7.47% | -11% | -1.14% | -0.0376% | -0.111% |  |
| CCc1cc2c(cc1N1CCC(N3CCOCC3)CC1)C(C)(C)c1[nH]c3cc(C#N)ccc3c1C2=O [alectinib] | 7% | 17% | 2% | 12% | 2.46% | -0.84% | -0.429% | 2.23% | 52% | 27% |  |
| COc1cc(N2CCC(N3CCN(C)CC3)CC2)ccc1Nc1ncc(Cl)c(Nc2ccccc2P(C)(C)=O)n1 [brigatinib] |  |  |  |  |  |  |  |  |  |  | %-inhibition at 1 µmol/L, TSSK2 [1]: 79%; %-inhibition at 1 µmol/L, FAK [2]: 99%; %-inhibition at 1 µmol/L, FGFR2 [3]: 97%; %-inhibition at 1 µmol/L, SIK [4]: 99%; %-inhibition at 1 µmol/L, TXK [5]: 76%; %-inhibition, MRCKα [6]: 18%; %-inhibition, MAPKAPK3 [7]: -0.903%; %-inhibition at 1 µmol/L, FLT1 [8]: 74%; %-inhibition at 1 µmol/L, PIM3 [9]: 5.69%; %-inhibition at 1 µmol/L, EPHB2 [10]: 10% |
| Cc1cc(Nc2ncc(Cl)c(Nc3ccccc3S(=O)(=O)C(C)C)n2)c(OC(C)C)cc1C1CCNCC1 [ceritinib] | 75% | 100% | 15% | 15% | 1.15% | 1.61% | -10% | 16% | -0.463% | 15% |  |
| O=C(c1ccc(F)c(F)c1Nc1ccc(I)cc1F)N1CC(O)([C@@H]2CCCCN2)C1 [cobimetinib] | -2.33% | -4% | -2.8% | 0.384% | 0.165% | -7% | 1.42% | -0.349% | -0.814% | 1.53% |  |
| C[C@@H](Oc1cc(-c2cnn(C3CCNCC3)c2)cnc1N)c1c(Cl)ccc(F)c1Cl [crizotinib] |  |  |  |  |  |  |  |  |  |  | %-inhibition at 1 µmol/L, TSSK2 [1, 21]: 0.896%; %-inhibition at 1 µmol/L, FAK [2, 22]: 90%; %-inhibition at 1 µmol/L, FGFR2 [3, 23]: 27%; %-inhibition at 1 µmol/L, SIK [4, 24]: 26%; %-inhibition at 1 µmol/L, TXK [5, 25]: 39%; %-inhibition, MRCKα [6, 26]: -8%; %-inhibition, MAPKAPK3 [7, 27]: -13%; %-inhibition at 1 µmol/L, FLT1 [8, 28]: 53%; %-inhibition at 1 µmol/L, PIM3 [9, 29]: -4%; %-inhibition at 1 µmol/L, EPHB2 [10, 30]: 57% |
| CC(C)(C)c1nc(-c2cccc(NS(=O)(=O)c3c(F)cccc3F)c2F)c(-c2ccnc(N)n2)s1 [dabrafenib] |  |  |  |  |  |  |  |  |  |  | %-inhibition at 1 µmol/L, TSSK2 [1, 21]: -1.73%; %-inhibition at 1 µmol/L, FAK [2, 22]: 13%; %-inhibition at 1 µmol/L, FGFR2 [3, 23]: 4%; %-inhibition at 1 µmol/L, SIK [4, 24]: 100%; %-inhibition at 1 µmol/L, TXK [5, 25]: 18%; %-inhibition, MRCKα [6, 26]: -1.84%; %-inhibition, MAPKAPK3 [7, 27]: -11%; %-inhibition at 1 µmol/L, FLT1 [8, 28]: 62%; %-inhibition at 1 µmol/L, PIM3 [9, 29]: 9%; %-inhibition at 1 µmol/L, EPHB2 [10, 30]: -3.38% |
